The source of these data is ChEMBL document CHEMBL1150412, “1,5-Diphenylpyrrole derivatives as antimycobacterial agents. Probing the influence on antimycobacterial activity of lipophilic substituents at the phenyl rings” (J Med Chem, 2008).

Assay [1] has as its system Mycobacterium tuberculosis. As to the kind of experiment: Antimycobacterial activity against isoniazid-resistant Mycobacterium tuberculosis. It counts as functional.
Assay [2] concerns Mycobacterium tuberculosis. Nature of the assay: Antimycobacterial activity against rifampicin-resistant Mycobacterium tuberculosis. It is filed as functional.

The structures appear in SMILES notation. In brackets after ≈: the same amount, converted by molar mass.

A word on the MIC: it is the lowest concentration found to suppress growth. With `Cc1c(CN2CCN(C)CC2)cc(-c2ccc(Cl)cc2)n1-c1ccc(Cl)cc1`, the minimum inhibitory concentration (MIC) was 2 µg/mL (≈ 4.83 µM) in assay [1] and 1 µg/mL (≈ 2.41 µM) in assay [2].

For `Cc1ccc(-c2cc(CN3CCSCC3)c(C)n2-c2ccc(F)cc2)cc1`, the figures for the MIC in assay [1] and in assay [2] were 32 µg/mL (≈ 84.1 µM) and 0.5 µg/mL (≈ 1.31 µM), respectively.

As for `Cc1c(CN2CCSCC2)cc(-c2ccc(Cl)cc2)n1-c1ccc(C(C)C)cc1`, the MIC was > 16 µg/mL in assay [1] and 0.25 µg/mL (≈ 0.588 µM) in assay [2].

On to `CCc1ccc(-n2c(-c3ccc(Cl)cc3)cc(CN3CCSCC3)c2C)cc1`, for which the MIC in assay [1] is 16 µg/mL (≈ 38.9 µM); in assay [2], 0.5 µg/mL (≈ 1.22 µM).

`Cc1c(CN2CCSCC2)cc(-c2ccc(C(C)C)cc2)n1-c1ccc(F)cc1`: the minimal inhibitory concentration (MIC) in assay [1] is > 16 µg/mL; in assay [2] it was 0.25 µg/mL (≈ 0.612 µM).

In the case of `Cc1ccc(-c2cc(CN3CCSCC3)c(C)n2-c2ccc(Cl)cc2)cc1`, the MIC was 16 µg/mL (≈ 40.3 µM) in assay [1] and 0.5 µg/mL (≈ 1.26 µM) in assay [2].

As to `CCc1ccc(-c2cc(CN3CCSCC3)c(C)n2-c2ccc(Cl)cc2)cc1`, the minimum inhibitory concentration (MIC) was determined as 16 µg/mL (≈ 38.9 µM) in assay [1] and 0.25 µg/mL (≈ 0.608 µM) in assay [2].

Regarding `Cc1ccc(-n2c(-c3ccc(Cl)cc3)cc(CN3CCSCC3)c2C)cc1`, the results for the MIC in assay [1] and in assay [2] were > 16 µg/mL and 0.5 µg/mL (≈ 1.26 µM), respectively.

Take `CCCc1ccc(-n2c(-c3ccc(Cl)cc3)cc(CN3CCSCC3)c2C)cc1`: the figures for the minimum inhibitory concentration (MIC) in assay [1] and in assay [2] were > 16 µg/mL and 0.25 µg/mL (≈ 0.588 µM), respectively.

`CCCc1ccc(-c2cc(CN3CCSCC3)c(C)n2-c2ccc(Cl)cc2)cc1`: the minimal inhibitory concentration (MIC) in assay [1] is > 16 µg/mL; in assay [2] it was 0.125 µg/mL (≈ 0.294 µM).

Regarding `Cc1c(CN2CCSCC2)cc(-c2ccc(C(C)C)cc2)n1-c1ccc(Cl)cc1`, the MIC in assay [1] was determined as 8 µg/mL (≈ 18.8 µM); in assay [2], 0.125 µg/mL (≈ 0.294 µM).

`[H]/N=C(/N)N[C@H]1[C@H](O)[C@@H](O)[C@H](O[C@@H]2O[C@@H](C)[C@](O)(C=O)[C@H]2O[C@@H]2O[C@@H](CO)[C@H](O)[C@@H](O)[C@@H]2NC)[C@@H](N/C(N)=N\[H])[C@@H]1O` (stereo in doubt) [STREPTOMYCIN]: the results for the MIC in assay [1] and in assay [2] were 16 µg/mL (≈ 27.5 µM) and 4 µg/mL (≈ 6.88 µM), respectively.

With `NNC(=O)c1ccncc1` [ISONIAZID], the minimum inhibitory concentration (MIC) is > 16 µg/mL in assay [1] and 0.25 µg/mL (≈ 1.82 µM) in assay [2].

In the case of `CO[C@H]1/C=C/O[C@@]2(C)Oc3c(C)c(O)c4c(O)c(c(/C=N/N5CCN(C)CC5)c(O)c4c3C2=O)NC(=O)/C(C)=C\C=C\[C@H](C)[C@H](O)[C@@H](C)[C@@H](O)[C@@H](C)[C@H](OC(C)=O)[C@@H]1C` [RIFAMPIN], the minimum inhibitory concentration (MIC) is 0.25 µg/mL (≈ 0.304 µM) in assay [1] and > 64 µg/mL in assay [2].
